# Measured values taken from patent publication US7718641B2, “Pyrrolo [3,4-H] isoquinoline compounds and methods for modulating gated ion channels” (Aros Pharma ApS, priority 2005, dated 2010).
# System: formalin-induced pain
# Experiment: Formalin test, model of acute tonic pain
# Type: in vivo, rat
# Method: Male Sprague-Dawley rats are housed together in groups of three animals under standard conditions with unrestricted access to food and water. All experiments are conducted according to the ethical guidelines for investigations of experimental pain in conscious animals (Zimmerman, 1983)
# Assessment of formalin-induced flinching behavior in normal, uninjured rats (body weight 150-180 g) was made with the use of an Automated Nociception Analyser (University of California, San Diego, USA). Briefly, this involved placing a small C-shaped metal band (10 mm wide×27 mm long) on the hindpaw of the rat to be tested. The rats (four rats were included in each testing session) were then placed in a cylindrical plexiglass observation chamber (diameter 30.5 cm and height 15 cm) for 20 min for adaptation purposes prior to being administered drug or vehicle according to the experimental paradigm being followed. After adaptation, individual rats were then gently restrained and formalin (5% in saline, 50 μl, s.c.) was injected into the plantar surface of the hindpaw using a 27G needle. Rats were then returned to their separate observation chambers, each of which were in turn situated upon an enclosed detection device consisting of two electromagnetic coils designed to produce an electromagnetic field in which movement of the metal band could be detected. The analogue signal was then digitised and a software algorithm (LabView) applied to enable discrimination of flinching behaviour from other paw movements. A sampling interval of 1 min was used and on the basis of the resulting response patterns 5 phases of nociceptive behaviour were identified and scored: first phase (P1; 0-5 min), interphase (Int; 6-15 min), second phase (P2; […]), phase 2A (P2A; 16-40 min) and phase 2B (P2B; 41-60 min).
# Nociceptive behavior was also determined manually every 5 min by measuring the amount of time spent in each of four behavioral categories: 0, treatment of the injected hindpaw is indistinguishable from that of the contralateral paw; 1, the injected paw has little or no weight placed on it; 2, the injected paw is elevated and is not in contact with any surface; 3, the injected paw is licked, bitten, or shaken. A weighted nociceptive score, ranging from 0 to 3 was calculated by multiplying the time spent in each category by the category weight, summing these products, and dividing by the total time for each 5 min block of time. (Coderre et al., Pain 1993; 54: 43). On the basis of the resulting response patterns, […] of nociceptive behavior were identified and scored: first phase (P1; 0-5 min), interphase (Int; 6-15 min), second phase (P2; […]), phase 2A (P2A; 16-40 min) and phase 2B (P2B; 41-60 min). […]
structure (smiles),measurement,setting,value
"COc1ccc(F)cc1-c1cc2c(c3c1CCN(C)C3)NC(=O)/C2=N/O [Compound A, 5-(5-fluoro-2-methoxyphenyl)-6,7,8,9-tetrahydro-3-(hydroxyimino)-8-methyl-1H-pyrrolo[3,2-h]isoquinoline-2(3H)-one]",ED50,"Rattus norvegicus, ip, i.p. 30 min before formalin, phase 2 (phase IIa), rat, read-out: ED50, total pain score in the formalin test",~12 mg/kg
same,"total pain score behavior (flinching, licking, biting)","i.p. 30 min before formalin, phase 1 and 2, n=6-8",reduce the total pain score behavior
"CCN1CCc2c(-c3ccccc3)cc3c(c2C1)NC(=O)/C3=N/O [Compound H, 5-phenyl-6,7,8,9-tetrahydro-3-(hydroxyimino)-8-ethyl-1H-pyrrolo[3,2-h]isoquinoline-2(3H)-one]",pain intensity as evaluated by the flinching behavior,"Automated Nociception Analyser, n=6-8",dose-dependent reduction of the pain intensity
